Laboratory results taken from patent US20090318412A1, “Tricyclic heterocyclic compound and use thereof” (priority 2006, published 2009).
Where a name gives a salt, the structure may show the parent alone.

target: serotonin 5-HT2C receptor (Homo sapiens, UniProt P28335, I156V/I160V/N158S); experiment: cell-based; conditions: CHO, read-out: ratio to maximum response by 5-HT
Sequence (P28335 33-458 I156V/N158S/I160V limits assumed): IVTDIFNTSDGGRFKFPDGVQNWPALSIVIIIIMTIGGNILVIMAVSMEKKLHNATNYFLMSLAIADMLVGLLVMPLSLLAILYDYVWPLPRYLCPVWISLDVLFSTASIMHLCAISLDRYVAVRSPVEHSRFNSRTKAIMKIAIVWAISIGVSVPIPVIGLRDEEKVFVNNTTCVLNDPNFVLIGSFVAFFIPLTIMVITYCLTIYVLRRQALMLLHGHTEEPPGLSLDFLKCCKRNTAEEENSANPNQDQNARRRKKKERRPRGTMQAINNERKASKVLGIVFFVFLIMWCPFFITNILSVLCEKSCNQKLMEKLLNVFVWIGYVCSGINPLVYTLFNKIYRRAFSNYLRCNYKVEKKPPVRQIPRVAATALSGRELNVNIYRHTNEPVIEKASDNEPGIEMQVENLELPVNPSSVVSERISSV

In order of falling Emax:
1. c1ccc2c(c1)CN1CCNCC1CO2 (stereo not drawn) [Example 2, 1,2,3,4,12,12a-hexahydro-6H-pyrazino[2,1-c][1,4]benzoxazepine dihydrochloride]  116%
2. O=C1c2ccccc2OCC2CNCCN12 (stereo not drawn) [Example 1, 1,2,3,4,12,12a-hexahydro-6H-pyrazino[2,1-c][1,4]benzoxazepin-6-one hydrochloride]  114%
3. Clc1ccc2c(c1)CN1CCNCC1CO2 (stereo not drawn) [Example 7, 8-chloro-1,2,3,4,12,12a-hexahydro-6H-pyrazino[2,1-c][1,4]benzoxazepine dihydrochloride]  107%
4. O=C1c2cc(Br)ccc2OCC2CNCCN12 (stereo not drawn) [Example 10, 8-bromo-1,2,3,4,12,12a-hexahydro-6H-pyrazino[2,1-c][1,4]benzoxazepin-6-one hydrochloride]  107%
5. O=C1c2ccc(Cl)cc2OCC2CNCCN12 (stereo not drawn) [Example 5, 9-chloro-1,2,3,4,12,12a-hexahydro-6H-pyrazino[2,1-c][1,4]benzoxazepin-6-one hydrochloride]  101%
6. O=C1c2cc(Cl)ccc2OCC2CNCCN12 (stereo not drawn) [Example 6, 8-chloro-1,2,3,4,12,12a-hexahydro-6H-pyrazino[2,1-c][1,4]benzoxazepin-6-one hydrochloride]  99.4%
7. Cc1cccc2c1OCC1CNCCN1C2=O (stereo not drawn) [Example 37, 10-methyl-1,2,3,4,12,12a-hexahydro-6H-pyrazino[2,1-c][1,4]benzoxazepin-6-one hydrochloride]  98.3%
8. O=C1c2cccc(Cl)c2OCC2CNCCN12 (stereo not drawn) [Example 3, 10-chloro-1,2,3,4,12,12a-hexahydro-6H-pyrazino[2,1-c][1,4]benzoxazepin-6-one hydrochloride]  98.2%
9. Cc1ccc2c(c1)C(=O)N1CCNCC1CO2 (stereo not drawn) [Example 13, 8-methyl-1,2,3,4,12,12a-hexahydro-6H-pyrazino[2,1-c][1,4]benzoxazepin-6-one hydrochloride]  96.9%
10. O=C1c2cc(C(F)(F)F)ccc2OCC2CNCCN12 (stereo not drawn) [Example 8, 8-(trifluoromethyl)-1,2,3,4,12,12a-hexahydro-6H-pyrazino[2,1-c][1,4]benzoxazepin-6-one hydrochloride]  96.5%
11. O=C1c2c(Br)cccc2OCC2CNCCN12 (stereo not drawn) [Example 41, 7-bromo-1,2,3,4,12,12a-hexahydro-6H-pyrazino[2,1-c][1,4]benzoxazepin-6-one hydrochloride]  96%
12. O=C1c2c(Cl)cccc2OCC2CNCCN12 (stereo not drawn) [Example 4, 7-chloro-1,2,3,4,12,12a-hexahydro-6H-pyrazino[2,1-c][1,4]benzoxazepin-6-one hydrochloride]  94.6%
13. COc1ccc2c(c1)C(=O)N1CCNCC1CO2 (stereo not drawn) [Example 31, 8-methoxy-1,2,3,4,12,12a-hexahydro-6H-pyrazino[2,1-c][1,4]benzoxazepin-6-one hydrochloride]  93.8%
14. FC(F)(F)c1ccc2c(c1)CN1CCNCC1CO2 (stereo not drawn) [Example 9, 8-(trifluoromethyl)-1,2,3,4,12,12a-hexahydro-6H-pyrazino[2,1-c][1,4]benzoxazepine dihydrochloride]  91.5%
15. O=C1c2c(cccc2C(F)(F)F)OCC2CNCCN12 (stereo not drawn) [Example 42, 7-(trifluoromethyl)-1,2,3,4,12,12a-hexahydro-6H-pyrazino[2,1-c][1,4]benzoxazepin-6-one hydrochloride]  88.4%
